# In patent US20230159889A1, “USE OF N-BUTYLIDENEPHTHALIDE IN DOPAMINERGIC PROGENITOR CELL TRANSPLANTATION” (GWO XI STEM CELL APPLIED TECHNOLOGY CO., LTD., priority 2018, published 2023):
# Experiments:
# dopaminergic neurons = test: Influence of BP on migration of dopaminergic neurons out from neurospheres (Sox-1/TH/DAPI fluorescent staining); assay type: cell-based; details: FIG. 4
# Method: (§1) The dopaminergic progenitor cells provided by [Preparation Example B-2] were cultured in the conditional medium provided by [Preparation Example A-2] at 37° C., 5% CO2 for 24 hours. Then, the cells were divided into six groups (see FIGS. 3 and 4), three groups (see FIGS. 5 and 6) and independently subjected to the following treatments: • (1) Control group: cells were continuously cultured in the conditional medium provided by [Preparation Example A-2] […]
# To understand the influence of BP on dopaminergic neurons, when the cells in each group provided by [Preparation Example C] were continuously cultured for ten days, the cells were fixed and then subjected to fluorescent staining with the antibodies including Sox-1 (purchased from Santa Cruz company, product number: SC-17318), TH (tyrosine hydroxylase; purchased from Millipore company, product number: MAB152) and DAPI (diamidino-2-phenylindole; purchased from ThermoFisher Scientific company, product number: D1306), respectively (Sox-1 expresses in dopaminergic progenitor cells, TH expresses in dopaminergic neurons, and DAPI is a nuclear-specific dye). Then, the dopaminergic progenitor cells (green fluorescence), dopaminergic neurons (red fluorescence) and nuclei (blue fluorescence) were observed by an upright fluorescent microscope (purchased from Nikon Company).
# [1] = system: dopaminergic progenitor cells; test: Influence of BP on differentiation of dopaminergic progenitor cells into dopaminergic neurons (cell morphology, inverted microscope); assay type: cell-based; details: FIG. 3
# Method: as §1
# To understand the influence of BP on the differentiation of dopaminergic progenitor cells into dopaminergic neurons, the differentiation process of the cells in control group provided by [Preparation Example C] was continuously taken from a JuLI™Br cell imaging analyzer (purchased from NanoEnTek company) (results are shown in FIG. 2), and the cell morphology in each group provided by [Preparation Example C] was taken from and recorded by an inverted microscope (purchased from Nikon company) when the cells were continuously cultured for six days (results are shown in FIG. 3).
smiles,measurement,setting,value
"CCCC=C1OC(=O)c2ccccc21 [BP, n-butylidenephthalide]","phenomenon of dopaminergic neurons migrating out from the neurospheres, comparison among BP concentrations","dopaminergic neurons; BP 50 µM (""BP (50)"" group), ten days",most significant
same,"phenomenon of dopaminergic neurons migrating out from the neurospheres, compared to control group","dopaminergic neurons; BP at 5, 10, 20, 50 and 100 µM in conditional medium, cultured ten days",can be observed
same,influence on the normal neural differentiation of dopaminergic progenitor cells,"[1]; BP 5-100 µM, six days",does not influence
same,formation of nerve fibers,"[1]; BP at 5, 10, 20, 50 and 100 µM in conditional medium (Purmorphamine + FGF-8b), cultured six days",can be observed
